Measurements reported in patent publication US7166299B2, “Preparation of aqueous clear solution dosage forms with bile acids” (priority 1998, dated 2007).
Where “and” joins values, the source holds several entries; their conditions need not be identical. Identical values can stand only once.

Test: Solution stability test (HPLC) of UDCA, branched chained amino acids and maltodextrin solution, Example IV
Assay type: physicochemical
Protocol: The stability tests were conducted on three different aqueous solution systems: […]. A bile acid and a high molecular weight aqueous soluble starch conversion product were combined in aqueous solution according to Example I, with results as shown in Tables 1A and 1B. • 2. Mixed bile acids and high molecular weight aqueous soluble starch conversion products were combined in aqueous solution according to Example II, with results as shown in Table 2. • 3. Bile acids, high molecular weight aqueous soluble starch conversion products and branched chained amino acids (e.g. leucine, isoleucine, valine, or other amino acid with a branched side chain) were combined in aqueous solution according to Example IV, with results as shown in Tables 3A through 3F. The stability tests were performed with HPLC and microscope light at various pH conditions under the normal and accelerated conditions. Accelerated conditions for testing pharmaceutical compositions have been described (Remington, The Science and Practice of Pharmacy, 19th ed., p. 640). […] Thus, the formulations of the examples are suitable for preparing a commercial liquid dosage form. […] Some formulations remain stable for over 2 years. Moreover, the solution stability tests were conducted on the aqueous solution dosage forms comprising the mixture of aqueous soluble UDCA, branched chained amino acid (leucine, isoleucine, valine) and maltodextrin according to example IV as a typical example of the solution dosage forms in which bile acid as a therapeutically active agent, as an adjuvant or carrier, pharmaceutically active agent, or enhancer of solubility, and high molecular weight aqueous soluble starch conversion products or soluble non-starch polysaccharides are dissolved. According to the test results, there is no discoloration, no clarity changes, and no precipitation. […] In the tables, the concentration of the indicated bile acid salt for each of the three numbered trials and the average thereof is reported on each line. The percentage indicates the relative concentration of the bile acid salt after incubation for a certain amount of time in comparison with the initial concentration. 85 mL of the aqueous solution in which soluble UDCA is dissolved was prepared, and then maltodextrin was added into the clear solution. Into the resulting clear solution, branched amino acids were added with adjusting the pH (4–7) with agitation and then sweetener, preservatives, and flavoring agent were added. Purified water was added to adjust the total volume to be 100 mL. Tables 3A to 3F show stability test results over time of formulation prepared with amino acids according to Example IV. All stability tests were conducted at 50° C. Stability test results at pH 1 (Table 3A), pH 3 (Table 3B), pH 5 (Table 3C), pH 7 (Table 3D), pH 9 (Table 3E), and pH 10 (Table 3F) are shown.

CC(C)[C@H](N)C(=O)O [Val, valine]
Percentage of day 0 concentration (Table 3A: pH1, 50° C., day 0): 100.0% | concentration by HPLC, Average (Table 3A: pH1, 50° C., day 0): 0.471 | concentration by HPLC, trials #1-#3 (Table 3A: pH1, 50° C., day 0): 0.506 and 0.448 and 0.460 | Percentage of day 0 concentration (Table 3A: pH1, 50° C., day 1): 96.7% | concentration by HPLC, Average (Table 3A: pH1, 50° C., day 1): 0.456 | concentration by HPLC, trials #1-#3 (Table 3A: pH1, 50° C., day 1): 0.438 and 0.458 and 0.471 | Percentage of day 0 concentration (Table 3A: pH1, 50° C., day 2): 104.5% | concentration by HPLC, Average (Table 3A: pH1, 50° C., day 2): 0.492 | concentration by HPLC, trials #1-#3 (Table 3A: pH1, 50° C., day 2): 0.479 and 0.485 and 0.513 | Percentage of day 0 concentration (Table 3A: pH1, 50° C., day 6): 112.4% | concentration by HPLC, Average (Table 3A: pH1, 50° C., day 6): 0.530 | concentration by HPLC, trials #1-#3 (Table 3A: pH1, 50° C., day 6): 0.505 and 0.536 and 0.549 | Percentage of day 0 concentration (Table 3A: pH1, 50° C., day 7): 102.9% | concentration by HPLC, Average (Table 3A: pH1, 50° C., day 7): 0.485 | concentration by HPLC, trials #1-#3 (Table 3A: pH1, 50° C., day 7): 0.494 and 0.465 and 0.496 | Percentage of day 0 concentration (Table 3A: pH1, 50° C., day 8): 101.7% | concentration by HPLC, Average (Table 3A: pH1, 50° C., day 8): 0.479 | concentration by HPLC, trials #1-#3 (Table 3A: pH1, 50° C., day 8): 0.488 and 0.491 and 0.459 | Percentage of day 0 concentration (Table 3A: pH1, 50° C., day 9): 103.6% | concentration by HPLC, Average (Table 3A: pH1, 50° C., day 9): 0.488 | concentration by HPLC, trials #1-#3 (Table 3A: pH1, 50° C., day 9): 0.479 and 0.496 and 0.490 | Percentage of day 0 concentration (Table 3B: pH 3, 50° C., day 0): 100.0% | concentration by HPLC, Average (Table 3B: pH 3, 50° C., day 0): 0.491 | concentration by HPLC, trials #1-#3 (Table 3B: pH 3, 50° C., day 0): 0.485 and 0.491 and 0.498 | Percentage of day 0 concentration (Table 3B: pH 3, 50° C., day 1): 94.6% | concentration by HPLC, Average (Table 3B: pH 3, 50° C., day 1): 0.465 | concentration by HPLC, trials #1-#3 (Table 3B: pH 3, 50° C., day 1): 0.467 and 0.481 and 0.446 | Percentage of day 0 concentration (Table 3B: pH 3, 50° C., day 2): 103.8% | concentration by HPLC, Average (Table 3B: pH 3, 50° C., day 2): 0.510 | concentration by HPLC, trials #1-#3 (Table 3B: pH 3, 50° C., day 2): 0.510 and 0.493 and 0.527 | Percentage of day 0 concentration (Table 3B: pH 3, 50° C., day 6): 106.6% | concentration by HPLC, Average (Table 3B: pH 3, 50° C., day 6): 0.524 | concentration by HPLC, trials #1-#3 (Table 3B: pH 3, 50° C., day 6): 0.527 and 0.491 and 0.553 | Percentage of day 0 concentration (Table 3B: pH 3, 50° C., day 7): 97.3% | concentration by HPLC, Average (Table 3B: pH 3, 50° C., day 7): 0.478 | concentration by HPLC, trials #1-#3 (Table 3B: pH 3, 50° C., day 7): 0.485 and 0.481 and 0.468 | Percentage of day 0 concentration (Table 3B: pH 3, 50° C., day 8): 103.5% | concentration by HPLC, Average (Table 3B: pH 3, 50° C., day 8): 0.508 | concentration by HPLC, trials #1-#3 (Table 3B: pH 3, 50° C., day 8): 0.490 and 0.491 and 0.544 | Percentage of day 0 concentration (Table 3B: pH 3, 50° C., day 13): 104.1% | concentration by HPLC, Average (Table 3B: pH 3, 50° C., day 13): 0.511 | concentration by HPLC, trials #1-#3 (Table 3B: pH 3, 50° C., day 13): 0.519 and 0.498 and 0.517 | Percentage of day 0 concentration (Table 3C: pH 5, 50° C., day 0): 100.0% | concentration by HPLC, Average (Table 3C: pH 5, 50° C., day 0): 0.487 | concentration by HPLC, trials #1-#3 (Table 3C: pH 5, 50° C., day 0): 0.483 and 0.498 and 0.481 | Percentage of day 0 concentration (Table 3C: pH 5, 50° C., day 3): 103.4% | concentration by HPLC, Average (Table 3C: pH 5, 50° C., day 3): 0.504 | concentration by HPLC, trials #1-#3 (Table 3C: pH 5, 50° C., day 3): 0.492 and 0.494 and 0.526 | Percentage of day 0 concentration (Table 3C: pH 5, 50° C., day 6): 96.8% | concentration by HPLC, Average (Table 3C: pH 5, 50° C., day 6): 0.472 | concentration by HPLC, trials #1-#3 (Table 3C: pH 5, 50° C., day 6): 0.459 and 0.475 and 0.481 | Percentage of day 0 concentration (Table 3C: pH 5, 50° C., day 10): 96.9% | concentration by HPLC, Average (Table 3C: pH 5, 50° C., day 10): 0.472 | concentration by HPLC, trials #1-#3 (Table 3C: pH 5, 50° C., day 10): 0.500 and 0.436 and 0.480 | Percentage of day 0 concentration (Table 3C: pH 5, 50° C., day 13): 95.0% | concentration by HPLC, Average (Table 3C: pH 5, 50° C., day 13): 0.463 | concentration by HPLC, trials #1-#3 (Table 3C: pH 5, 50° C., day 13): 0.464 and 0.451 and 0.474 | Percentage of day 0 concentration (Table 3C: pH 5, 50° C., day 17): 93.0% | concentration by HPLC, Average (Table 3C: pH 5, 50° C., day 17): 0.453 | concentration by HPLC, trials #1-#3 (Table 3C: pH 5, 50° C., day 17): 0.407 and 0.491 and 0.462 | Percentage of day 0 concentration (Table 3C: pH 5, 50° C., day 20): 99.9% | concentration by HPLC, Average (Table 3C: pH 5, 50° C., day 20): 0.487 | concentration by HPLC, trials #1-#3 (Table 3C: pH 5, 50° C., day 20): 0.471 and 0.512 and 0.477 | Percentage of day 0 concentration (Table 3C: pH 5, 50° C., day 24): 96.1% | concentration by HPLC, Average (Table 3C: pH 5, 50° C., day 24): 0.468 | concentration by HPLC, trials #1-#3 (Table 3C: pH 5, 50° C., day 24): 0.471 and 0.476 and 0.458 | Percentage of day 0 concentration (Table 3D: pH 7, 50° C., day 0): 100.0% | concentration by HPLC, Average (Table 3D: pH 7, 50° C., day 0): 0.513 | concentration by HPLC, trials #1-#3 (Table 3D: pH 7, 50° C., day 0): 0.483 and 0.530 and 0.525 | Percentage of day 0 concentration (Table 3D: pH 7, 50° C., day 5): 94.1% | concentration by HPLC, Average (Table 3D: pH 7, 50° C., day 5): 0.483 | concentration by HPLC, trials #1-#3 (Table 3D: pH 7, 50° C., day 5): 0.502 and 0.447 and 0.499 | Percentage of day 0 concentration (Table 3D: pH 7, 50° C., day 8): 96.2% | concentration by HPLC, Average (Table 3D: pH 7, 50° C., day 8): 0.493 | concentration by HPLC, trials #1-#3 (Table 3D: pH 7, 50° C., day 8): 0.488 and 0.498 and 0.493 | Percentage of day 0 concentration (Table 3D: pH 7, 50° C., day 12): 91.2% | concentration by HPLC, Average (Table 3D: pH 7, 50° C., day 12): 0.467 | concentration by HPLC, trials #1-#3 (Table 3D: pH 7, 50° C., day 12): 0.490 and 0.469 and 0.443 | Percentage of day 0 concentration (Table 3D: pH 7, 50° C., day 15): 95.9% | concentration by HPLC, Average (Table 3D: pH 7, 50° C., day 15): 0.492 | concentration by HPLC, trials #1-#3 (Table 3D: pH 7, 50° C., day 15): 0.492 and 0.541 and 0.442 | Percentage of day 0 concentration (Table 3D: pH 7, 50° C., day 19): 93.6% | concentration by HPLC, Average (Table 3D: pH 7, 50° C., day 19): 0.480 | concentration by HPLC, trials #1-#3 (Table 3D: pH 7, 50° C., day 19): 0.458 and 0.500 and 0.482 | Percentage of day 0 concentration (Table 3E: pH 9, 50° C., day 0): 100.0% | concentration by HPLC, Average (Table 3E: pH 9, 50° C., day 0): 0.489 | concentration by HPLC, trials #1-#3 (Table 3E: pH 9, 50° C., day 0): 0.508 and 0.476 and 0.484 | Percentage of day 0 concentration (Table 3E: pH 9, 50° C., day 3): 97.8% | concentration by HPLC, Average (Table 3E: pH 9, 50° C., day 3): 0.478 | concentration by HPLC, trials #1-#3 (Table 3E: pH 9, 50° C., day 3): 0.463 and 0.487 and 0.485 | Percentage of day 0 concentration (Table 3E: pH 9, 50° C., day 6): 99.5% | concentration by HPLC, Average (Table 3E: pH 9, 50° C., day 6): 0.487 | concentration by HPLC, trials #1-#3 (Table 3E: pH 9, 50° C., day 6): 0.493 and 0.473 and 0.495 | Percentage of day 0 concentration (Table 3E: pH 9, 50° C., day 10): 91.3% | concentration by HPLC, Average (Table 3E: pH 9, 50° C., day 10): 0.447 | concentration by HPLC, trials #1-#3 (Table 3E: pH 9, 50° C., day 10): 0.441 and 0.428 and 0.471 | Percentage of day 0 concentration (Table 3E: pH 9, 50° C., day 13): 101.3% | concentration by HPLC, Average (Table 3E: pH 9, 50° C., day 13): 0.496 | concentration by HPLC, trials #1-#3 (Table 3E: pH 9, 50° C., day 13): 0.467 and 0.483 and 0.537 | Percentage of day 0 concentration (Table 3E: pH 9, 50° C., day 17): 101.8% | concentration by HPLC, Average (Table 3E: pH 9, 50° C., day 17): 0.498 | concentration by HPLC, trials #1-#3 (Table 3E: pH 9, 50° C., day 17): 0.499 | Percentage of day 0 concentration (Table 3F: pH 10, 50° C., day 0): 100.0% | concentration by HPLC, Average (Table 3F: pH 10, 50° C., day 0): 0.486 | Percentage of day 0 concentration (Table 3F: pH 10, 50° C., day 2): 104.2% | concentration by HPLC, Average (Table 3F: pH 10, 50° C., day 2): 0.506 | Percentage of day 0 concentration (Table 3F: pH 10, 50° C., day 5): 83.5% | concentration by HPLC, Average (Table 3F: pH 10, 50° C., day 5): 0.405 | Percentage of day 0 concentration (Table 3F: pH 10, 50° C., day 7): 81.8% | concentration by HPLC, Average (Table 3F: pH 10, 50° C., day 7): 0.397 | Percentage of day 0 concentration (Table 3F: pH 10, 50° C., day 9): 75.8% | concentration by HPLC, Average (Table 3F: pH 10, 50° C., day 9): 0.368
